Patent US11814367B2, “Inhibitors of glycogen synthase 1 (GYS1) and methods of use thereof” (Maze Therapeutics, Inc., priority 2021, dated 2023)

Legend:
[1] = molecular target: hGYS1 enzyme (recombinant hGYS1/GN1 protein) (Homo sapiens (Human), UniProt P13807); assay: GYS1 coupled enzyme assay (PK/LDH); format: biochemical; details: hGYS1/GN1 50 nM, UDP-Glucose 0.8 mM, G6P 1 mM; geometric mean of at least 2 runs
[2] = system: hGYS1 enzyme / glycogen synthesis in HeLa cells; assay: GYS1 cell based assay (glycogen synthesis, Glucose-glo); parameters: species or system human; details: 24 h incubation, 20 mM glucose, geometric mean of at least 2 runs
Procedure, shortened: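 HeLa cells starved 24 h in medium containing only 1× Glutamax were plated onto compound in medium with 20 mM glucose (1% DMSO final) for 24 h, 37 °C, 5% CO2. Acid lysates were Tris-quenched, glucoamylase-digested (pH 5.3, 1 h, 37 °C) and read by Glucose-glo luminescence. IC50 came from Hill fits, as geometric mean of ≥2 runs.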

Chain of hGYS1 enzyme (recombinant hGYS1/GN1 protein) (P13807 whole entry): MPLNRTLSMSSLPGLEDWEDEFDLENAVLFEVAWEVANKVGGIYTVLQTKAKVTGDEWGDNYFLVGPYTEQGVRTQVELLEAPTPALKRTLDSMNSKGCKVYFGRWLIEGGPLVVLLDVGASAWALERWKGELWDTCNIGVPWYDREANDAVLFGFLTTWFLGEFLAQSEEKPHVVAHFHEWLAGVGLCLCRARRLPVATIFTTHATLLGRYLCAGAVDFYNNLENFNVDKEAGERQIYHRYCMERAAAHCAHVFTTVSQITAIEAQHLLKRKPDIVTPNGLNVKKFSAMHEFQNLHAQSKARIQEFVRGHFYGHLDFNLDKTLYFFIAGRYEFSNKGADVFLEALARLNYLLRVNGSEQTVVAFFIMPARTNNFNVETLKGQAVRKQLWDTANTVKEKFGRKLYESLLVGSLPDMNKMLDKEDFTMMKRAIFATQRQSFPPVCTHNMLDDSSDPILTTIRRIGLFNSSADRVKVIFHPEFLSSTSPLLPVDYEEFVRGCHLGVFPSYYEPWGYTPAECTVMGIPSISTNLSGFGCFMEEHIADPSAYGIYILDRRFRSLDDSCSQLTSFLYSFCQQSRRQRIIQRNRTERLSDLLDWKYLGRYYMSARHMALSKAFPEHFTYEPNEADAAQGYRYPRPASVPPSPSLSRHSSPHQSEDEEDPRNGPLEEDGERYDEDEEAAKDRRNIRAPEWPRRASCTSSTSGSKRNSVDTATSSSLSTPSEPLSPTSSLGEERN
Chain of hGYS1 enzyme (recombinant hGYS1/GN1 protein) (P46976 whole entry partner): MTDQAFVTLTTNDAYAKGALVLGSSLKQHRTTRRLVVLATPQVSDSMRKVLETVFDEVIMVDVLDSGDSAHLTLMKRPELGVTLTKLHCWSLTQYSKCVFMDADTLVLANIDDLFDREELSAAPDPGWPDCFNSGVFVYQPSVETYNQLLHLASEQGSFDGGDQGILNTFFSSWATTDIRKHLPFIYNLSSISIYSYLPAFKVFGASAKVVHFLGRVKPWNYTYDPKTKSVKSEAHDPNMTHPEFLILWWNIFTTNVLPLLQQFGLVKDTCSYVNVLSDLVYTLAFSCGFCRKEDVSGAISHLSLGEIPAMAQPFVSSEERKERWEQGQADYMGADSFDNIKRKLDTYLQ

Compound	IC50 [1] [nM]	IC50 ([2]; Homo sapiens, HeLa, 24 h) [nM]	IC50 [2] [nM]
CC(C)c1cnc(C(NC(=O)[C@@H]2C[C@@H](F)CN2C(=O)Cc2cnn[nH]2)c2ccccc2)cc1C(F)(F)F (single isomer, unassigned) [Compound 608, (2S,4R)-4-fluoro-N-[(S) or (R)-phenyl[5-(propan-2-yl)-4-(trifluoromethyl)pyridin-2-yl]methyl]-1-[2-(1H-1,2,3-triazol-5-yl)acetyl]pyrrolidine-2-carboxamide]	2860	> 10000	–
CC(C)c1ccc([C@@H](NC(=O)[C@@H]2C[C@@H](F)CN2C(=O)Cc2noc(=O)[nH]2)c2ccccc2)nc1 [Compound 286, (2S,4R)-4-fluoro-1-[2-(5-oxo-4,5-dihydro-1,2,4-oxadiazol-3-yl)acetyl]-N-[(S)-phenyl[5-(propan-2-yl)pyridin-2-yl]methyl]pyrrolidine-2-carboxamide]	147	> 30000	–
CC(=O)NCc1cccc([C@H](NC(=O)[C@@H]2C[C@@H](F)CN2C(=O)Cc2cnn[nH]2)c2ccc(C(C)C)c(F)n2)c1 [Compound 655, (2S,4R)-N-[(S)-[3-(acetamidomethyl)phenyl][6-fluoro-5-(propan-2-yl)pyridin-2-yl]methyl]-4-fluoro-1-[2-(1H-1,2,3-triazol-5-yl)acetyl]pyrrolidine-2-carboxamide]	1010	> 30000	–
(2S,4R)-4-fluoro- N-[(S) or (R)-[6- fluoro-5-(propan- 2-yl)pyridin-2- yl][3-(1,2-oxazol-5- yl)phenyl]methyl]- 1-[2-(1H-1,2,3- triazol-5- yl)acetyl]pyrrolidine- 2-carboxamide [Compound 694]	34	–	1210
Cn1ncc(CC(=O)N2C[C@H](F)C[C@H]2C(=O)N[C@@H](c2ccccc2)c2ccc(C3CC3)c(F)n2)c1C(F)F [Compound 751, (2S,4R)-N-[(S)-(5-cyclopropyl-6-fluoropyridin-2-yl)(phenyl)methyl]-1-{2-[5-(difluoromethyl)-1-methyl-1H-pyrazol-4-yl]acetyl}-4-fluoropyrrolidine-2-carboxamide]	13	470	–
O=C(N[C@@H](c1ccccc1)c1ccc(C2CC2)c(F)n1)[C@@H]1C[C@@H](F)CN1C(=O)Cn1nncc1N1CC(F)(F)C1 [Compound 758, (2S,4R)-N-[(S)-(5-cyclopropyl-6-fluoropyridin-2-yl)(phenyl)methyl]-1-{2-[5-(3,3-difluoroazetidin-1-yl)-1H-1,2,3-triazol-1-yl]acetyl}-4-fluoropyrrolidine-2-carboxamide]	32	1160	–
O=C(N[C@@H](c1ccccc1)c1ccc(C2CC(F)(F)C2)c(F)n1)[C@@H]1C[C@@H](F)CN1C(=O)Cc1c[nH]c(=O)cn1 [Compound 530, (2S,4R)-N-[(S)-[5-(3,3-difluorocyclobutyl)-6-fluoropyridin-2-yl](phenyl)methyl]-4-fluoro-l-[2-(5-oxo-4,5-dihydropyrazin-2-yl)acetyl]pyrrolidine-2-carboxamide]	12	910	–
O=C(N[C@@H](c1ccccc1)c1ccc(C2CC2)c(F)n1)[C@@H]1C[C@@H](F)CN1C(=O)Cc1cccn2c(=O)[nH]nc12 [Compound 297, (2S,4R)-N-[(S)-(5-cyclopropyl-6-fluoropyridin-2-yl)(phenyl)methyl]-4-fluoro-1-(2-{3-oxo-2H,3H-[1,2,4]triazolo[4,3-a]pyridin-8-yl}acetyl)pyrrolidine-2-carboxamide]	15	700	–
CC(C)c1ccc(C(NC(=O)[C@@H]2C[C@@H](F)CN2C(=O)Cc2cnn[nH]2)c2ncn3ccccc23)nc1F (single isomer, unassigned) [Compound 629, (2S,4R)-4-fluoro-N-[(S) or (R)-[6-fluoro-5-(propan-2-yl)pyridin-2-yl]({imidazo[1,5-a]pyridin-1-yl})methyl]-1-[2-(1H-1,2,3-triazol-5-yl)acetyl]pyrrolidine-2-carboxamide]	1480	> 24000	–
O=C(N[C@@H](c1ccccc1)c1ccc(C2CC2)c(F)c1)[C@@H]1C[C@@H](F)CN1C(=O)CN1CCOCC1=O [Compound 423, (2S,4R)-N-[(S)-(4-cyclopropyl-3-fluorophenyl)(phenyl)methyl]-4-fluoro-1-[2-(3-oxomorpholin-4-yl)acetyl]pyrrolidine-2-carboxamide]	350	> 9260	–

Continued by falling IC50 [1], values first:

IC50 [1] [nM]	IC50 ([2]; Homo sapiens, HeLa, 24 h) [nM]	IC50 [2] [nM]	Compound
2610	> 30000	–	O=C(N[C@H](c1ccccc1)c1ccc(C2CC(F)(F)C2)c(F)n1)[C@@H]1C[C@@H](F)CN1C(=O)Cc1ccc[nH]c1=O [Compound 521, (2S,4R)-N-[(R)-[5-(3,3-difluorocyclobutyl)-6-fluoropyridin-2-yl](phenyl)methyl]-4-fluoro-1-[2-(2-oxo-1,2-dihydropyridin-3-yl)acetyl]pyrrolidine-2-carboxamide]
153	2180	–	CC1(c2ccc([C@@H](NC(=O)[C@@H]3C[C@@H](F)CN3C(=O)Cc3cc4ccccc4[nH]3)c3ccccc3)nc2F)CC1 [Compound 598, (2S,4R)-4-fluoro-N-[(S)-[6-fluoro-5-(1-methylcyclopropyl)pyridin-2-yl](phenyl)methyl]-1-[2-(1H-indol-2-yl)acetyl]pyrrolidine-2-carboxamide]
37	760	–	O=C(N[C@@H](c1ccccc1)c1ccc(C2CC2)c(F)n1)[C@@H]1C[C@@H](F)CN1C(=O)Cn1ccc(C(F)(F)F)n1 [Compound 730, (2S,4R)-N-[(S)-(5-cyclopropyl-6-fluoropyridin-2-yl)(phenyl)methyl]-4-fluoro-1-{2-[3-(trifluoromethyl)-1H-pyrazol-1-yl]acetyl}pyrrolidine-2-carboxamide]
15	390	–	CC(=O)NCC(=O)N1C[C@H](F)C[C@H]1C(=O)NC(c1cccc(-c2ccn[nH]2)c1)c1ccc(C(C)C)c(F)n1 (single isomer, unassigned) [Compound 691, (2S,4R)-1-(2-acetamidoacetyl)-4-fluoro-N-[(S) or (R)-[6-fluoro-5-(propan-2-yl)pyridin-2-yl][3-(1H-pyrazol-5-yl)phenyl]methyl] pyrrolidine-2-carboxamide]
15	330	–	O=C(N[C@@H](c1ccccc1)c1ccc(C2CC(F)(F)C2)c(F)n1)[C@@H]1C[C@@H](F)CN1C(=O)Cc1nc(C(F)(F)F)co1 [Compound 528, (2S,4R)-N-[(S)-[5-(3,3-difluorocyclobutyl)-6-fluoropyridin-2-yl](phenyl)methyl]-4-fluoro-1-{2-[4-(trifluoromethyl)-1,3-oxazol-2-yl]acetyl}pyrrolidine-2-carboxamide]
12	220	–	CCOc1ncc(CC(=O)N2C[C@H](F)C[C@H]2C(=O)N[C@@H](c2ccccc2)c2ccc(C(C)C)c(F)n2)cc1C [Compound 798, (2S,4R)-1-[2-(6-ethoxy-5-methylpyridin-3-yl)acetyl]-4-fluoro-N-[(S)-[6-fluoro-5-(propan-2-yl)pyridin-2-yl](phenyl)methyl] pyrrolidine-2-carboxamide]
6	90	–	CCn1ccnc(CC(=O)N2C[C@H](F)C[C@H]2C(=O)N[C@@H](c2ccccc2)c2ccc(C(C)C)c(F)n2)c1=O [Compound 806, (2S,4R)-1-[2-(4-ethyl-3-oxo-3,4-dihydropyrazin-2-yl)acetyl]-4-fluoro-N-[(S)-[6-fluoro-5-(propan-2-yl)pyridin-2-yl](phenyl)methyl] pyrrolidine-2-carboxamide]
